# Values quoted from earlier work as cited in patent US20120301405A1, “Simple Mechanical Procedure and Product for Deterring Substance Abuse” (priority 2005, published 2012).
# Read-outs that look alike come from different tables or passages of the source.
# Legend:
# benzodiazepine receptors = details: for AED (Approximate Equivalent Dose): based on clinical experience
# [1] = for Time to Peak (onset of action, in hours): maximum levels of the drug in the blood after a given dose; for Elimination ½-Life (h) [active metabolite]: value in square brackets
# [2] = atypical benzodiazepine receptor ligands table
structure (smiles),measurement,setting,value
Cc1nnc2n1-c1ccc(Cl)cc1C(c1ccccc1)=NC2 [Alprazolam],AED (Approximate Equivalent Dose),benzodiazepine receptors; benzodiazepine table,0.5 mg
same,"Time to Peak (onset of action, in hours)",[1],1 to 2 h
same,Elimination ½-Life,[1]; parent drug,6 to 12 h
CC(C)(C)OC(=O)c1ncn2c1[C@@H]1CCCN1C(=O)c1c(Br)cccc1-2 [Bretazenil],AED (Approximate Equivalent Dose),benzodiazepine receptors; benzodiazepine table,0.5 mg
same,Elimination ½-Life,[1]; parent drug,2.5 h
O=C1CN=C(c2ccccn2)c2cc(Br)ccc2N1 [Bromazepam],AED (Approximate Equivalent Dose),benzodiazepine receptors; benzodiazepine table,5 to 6 mg
same,"Time to Peak (onset of action, in hours)",[1],1 to 3 h
same,Elimination ½-Life,[1]; parent drug,10 to 20 h
Cc1nnc2n1-c1sc(Br)cc1C(c1ccccc1Cl)=NC2 [Brotizolam],AED (Approximate Equivalent Dose),benzodiazepine receptors; benzodiazepine table,0.25 mg
same,"Time to Peak (onset of action, in hours)",[1],0.5-2^ hours
same,Elimination ½-Life,[1]; parent drug,4 to 5 h
CNC1=Nc2ccc(Cl)cc2C(c2ccccc2)=[N+]([O-])C1 [Chlordiazepoxide],elimination half-life in the elderly compared to younger individuals,[1]; elderly vs younger individuals,twice as long
N#CCCN1C(=O)C(O)N=C(c2ccccc2F)c2cc(Cl)ccc21 (centres unmarked) [Cinolazepam],AED (Approximate Equivalent Dose),benzodiazepine receptors; benzodiazepine table,40 mg
same,"Time to Peak (onset of action, in hours)",[1],0.5-2^ hours
same,Elimination ½-Life,[1]; parent drug,9 h
CN1C(=O)CC(=O)N(c2ccccc2)c2cc(Cl)ccc21 [Clobazam],AED (Approximate Equivalent Dose),benzodiazepine receptors; [2],20 mg
same,Elimination ½-Life,[1]; [2],8 to 60 h
O=C1CN=C(c2ccccc2Cl)c2cc([N+](=O)[O-])ccc2N1 [Clonazepam],AED (Approximate Equivalent Dose),benzodiazepine receptors; benzodiazepine table,0.5 mg
same,"Time to Peak (onset of action, in hours)",[1],1 to 4 h
same,Elimination ½-Life,[1]; parent drug,18 to 50 h
O=C(O)C1N=C(c2ccccc2)c2cc(Cl)ccc2NC1=O (centres unmarked) [Clorazepate],AED (Approximate Equivalent Dose),benzodiazepine receptors; benzodiazepine table,15 mg
same,"Time to Peak (onset of action, in hours)",[1],variable
same,Elimination ½-Life,[1]; parent drug,36 to 100 h
CCc1cc2c(s1)N(C)C(=O)CN=C2c1ccccc1Cl [Clotiazepam],AED (Approximate Equivalent Dose),benzodiazepine receptors; benzodiazepine table,5 to 10 mg
same,"Time to Peak (onset of action, in hours)",[1],1 to 3 h
same,Elimination ½-Life,[1]; parent drug,6 to 18 h
O=C1CN2CCOC2(c2ccccc2Cl)c2cc(Cl)ccc2N1 (centres unmarked) [Cloxazolam],AED (Approximate Equivalent Dose),benzodiazepine receptors; benzodiazepine table,1 mg
O=C1CN=C(c2ccccc2Cl)c2cc(Cl)ccc2N1 [Delorazepam],AED (Approximate Equivalent Dose),benzodiazepine receptors; benzodiazepine table,1 mg
same,"Time to Peak (onset of action, in hours)",[1],1 to 2 h
same,Elimination ½-Life,[1]; parent drug,60 to 140 h
CN1C(=O)CN=C(c2ccccc2)c2cc(Cl)ccc21 [Diazepam],AED (Approximate Equivalent Dose),benzodiazepine receptors; benzodiazepine table,10 mg
same,equivalent dose in an elderly individual on lorazepam versus what would be expected in a younger individual,benzodiazepine receptors; elderly individual on lorazepam,up to half
same,Elimination ½-Life (h) [active metabolite],[1],[36-200] h
same,"Time to Peak (onset of action, in hours)",[1],1 to 1.5 h
same,Elimination ½-Life,[1]; parent drug,20 to 100 h
Clc1ccc2c(c1)C(c1ccccc1)=NCc1nncn1-2 [Estazolam],AED (Approximate Equivalent Dose),benzodiazepine receptors; benzodiazepine table,1 to 2 mg
same,"Time to Peak (onset of action, in hours)",[1],1 to 5 h
same,Elimination ½-Life,[1]; parent drug,10 to 24 h
CN1CCN(C(=O)O[C@H]2c3nccnc3C(=O)N2c2ccc(Cl)cn2)CC1 [Eszopiclone],Elimination ½-Life,[1]; [2],6 h
CCc1cc2c(s1)-n1c(C)nnc1CN=C2c1ccccc1Cl [Etizolam],AED (Approximate Equivalent Dose),benzodiazepine receptors; benzodiazepine table,1 mg
same,"Time to Peak (onset of action, in hours)",[1],1 to 2 h
same,Elimination ½-Life,[1]; parent drug,6 h
CCOC(=O)c1ncn2c1CN(C)C(=O)c1cc(F)ccc1-2 [Flumazenil],Elimination ½-Life,[1]; [2],1 h
CN1C(=O)CN=C(c2ccccc2F)c2cc([N+](=O)[O-])ccc21 [Flunitrazepam],AED (Approximate Equivalent Dose),benzodiazepine receptors; benzodiazepine table,1 mg
same,"Time to Peak (onset of action, in hours)",[1],0.5-3^ hours
same,Elimination ½-Life,[1]; parent drug,18 to 26 h
CCN(CC)CCN1C(=O)CN=C(c2ccccc2F)c2cc(Cl)ccc21 [Flurazepam],AED (Approximate Equivalent Dose),benzodiazepine receptors; benzodiazepine table,15 to 30 mg
same,"Time to Peak (onset of action, in hours)",[1],1 to 1.5 h
same,Elimination ½-Life,[1]; parent drug,40 to 250 h
O=C1CN=C(c2ccccc2F)c2cc(Cl)ccc2N1CC1CC1 [Flutoprazepam],AED (Approximate Equivalent Dose),benzodiazepine receptors; benzodiazepine table,2 to 3 mg
same,"Time to Peak (onset of action, in hours)",[1],0.5-9^ hours
same,Elimination ½-Life,[1]; parent drug,60 to 90 h
O=C1CN=C(c2ccccc2)c2cc(Cl)ccc2N1CC(F)(F)F [Halazepam],AED (Approximate Equivalent Dose),benzodiazepine receptors; benzodiazepine table,20 to 40 mg
same,"Time to Peak (onset of action, in hours)",[1],1 to 3 h
same,Elimination ½-Life,[1]; parent drug,30 to 100 h
CC1=CC(=O)N2CC(=O)N(C)c3ccc(Cl)cc3C2(c2ccccc2)O1 (centres unmarked) [Ketazolam],AED (Approximate Equivalent Dose),benzodiazepine receptors; benzodiazepine table,15 to 30 mg
same,Elimination ½-Life (h) [active metabolite],[1],[36-200] h
same,"Time to Peak (onset of action, in hours)",[1],2.5-3^ hours
same,Elimination ½-Life,[1]; parent drug,30 to 100 h
CN1CCN(/C=C2\N=C3CN=C(c4ccccc4Cl)c4cc([N+](=O)[O-])ccc4N3C2=O)CC1 [Loprazolam],AED (Approximate Equivalent Dose),benzodiazepine receptors; benzodiazepine table,1 to 2 mg
same,"Time to Peak (onset of action, in hours)",[1],0.5-4^ hours
same,Elimination ½-Life,[1]; parent drug,6 to 12 h
O=C1Nc2ccc(Cl)cc2C(c2ccccc2Cl)=NC1O (centres unmarked) [Lorazepam],AED (Approximate Equivalent Dose),benzodiazepine receptors; benzodiazepine table,1 mg
same,"Time to Peak (onset of action, in hours)",[1],2 to 4 h
same,Elimination ½-Life,[1]; parent drug,10 to 20 h
CN1C(=O)C(O)N=C(c2ccccc2Cl)c2cc(Cl)ccc21 (centres unmarked) [Lormetazepam],AED (Approximate Equivalent Dose),benzodiazepine receptors; benzodiazepine table,1 to 2 mg
same,"Time to Peak (onset of action, in hours)",[1],0.5-2^ hours
same,Elimination ½-Life,[1]; parent drug,10 to 12 h
CN1CCN=C(c2ccccc2)c2cc(Cl)ccc21 [Medazepam],AED (Approximate Equivalent Dose),benzodiazepine receptors; benzodiazepine table,10 mg
same,Elimination ½-Life,[1]; parent drug,36 to 200 h
Cc1ncc2n1-c1ccc(Cl)cc1C(c1ccccc1F)=NC2 [Midazolam],AED (Approximate Equivalent Dose),benzodiazepine receptors; benzodiazepine table,5 to 8 mg
same,"Time to Peak (onset of action, in hours)",[1],0.5-1^ hours
CN1C(=O)CN=C(c2ccccc2)c2cc([N+](=O)[O-])ccc21 [Nimetazepam],AED (Approximate Equivalent Dose),benzodiazepine receptors; benzodiazepine table,5 mg
same,"Time to Peak (onset of action, in hours)",[1],0.5-3^ hours
same,Elimination ½-Life,[1]; parent drug,14 to 30 h
O=C1CN=C(c2ccccc2)c2cc([N+](=O)[O-])ccc2N1 [Nitrazepam],AED (Approximate Equivalent Dose),benzodiazepine receptors; benzodiazepine table,10 mg
same,"Time to Peak (onset of action, in hours)",[1],0.5-7^ hours
same,Elimination ½-Life,[1]; parent drug,15 to 38 h
O=C1CN=C(c2ccccc2)c2cc(Cl)ccc2N1 [Nordazepam],AED (Approximate Equivalent Dose),benzodiazepine receptors; benzodiazepine table,10 mg
same,Elimination ½-Life,[1]; parent drug,50 to 120 h
O=C1Nc2ccc(Cl)cc2C(c2ccccc2)=NC1O (centres unmarked) [Oxazepam],"Time to Peak (onset of action, in hours)",[1],3 to 4 h
same,Elimination ½-Life,[1]; parent drug,4 to 15 h
O=C1CN=C(c2ccccc2Cl)c2cc(Br)ccc2N1 [Phenazepam],AED (Approximate Equivalent Dose),benzodiazepine receptors; benzodiazepine table,1 mg
same,"Time to Peak (onset of action, in hours)",[1],1.5-4^ hours
same,Elimination ½-Life,[1]; parent drug,60 h
C#CCN1C(=O)CN=C(c2ccccc2)c2cc(Cl)ccc21 [Pinazepam],AED (Approximate Equivalent Dose),benzodiazepine receptors; benzodiazepine table,20 mg
same,Elimination ½-Life,[1]; parent drug,40 to 100 h
O=C1CN=C(c2ccccc2)c2cc(Cl)ccc2N1CC1CC1 [Prazepam],AED (Approximate Equivalent Dose),benzodiazepine receptors; benzodiazepine table,20 mg
same,"Time to Peak (onset of action, in hours)",[1],2 to 6 h
same,Elimination ½-Life,[1]; parent drug,36 to 200 h
Cc1c2c(cn1C)NC(=O)CN=C2c1ccccc1 [Premazepam],AED (Approximate Equivalent Dose),benzodiazepine receptors; benzodiazepine table,3.75 mg
same,"Time to Peak (onset of action, in hours)",[1],2 to 6 h
same,Elimination ½-Life,[1]; parent drug,10 to 13 h
Fc1ccccc1C1=NCC(=S)N(CC(F)(F)F)c2ccc(Cl)cc21 [Quazepam],AED (Approximate Equivalent Dose),benzodiazepine receptors; benzodiazepine table,20 mg
same,"Time to Peak (onset of action, in hours)",[1],1 to 5 h
same,Elimination ½-Life,[1]; parent drug,39 to 120 h
CN1C(=O)C(O)N=C(c2ccccc2)c2cc(Cl)ccc21 (centres unmarked) [Temazepam],AED (Approximate Equivalent Dose),benzodiazepine receptors; benzodiazepine table,20 mg
same,"Time to Peak (onset of action, in hours)",[1],0.5-3^ hours
same,Elimination ½-Life,[1]; parent drug,8 to 22 h
CN1C(=O)CN=C(C2=CCCCC2)c2cc(Cl)ccc21 [Tetrazepam],AED (Approximate Equivalent Dose),benzodiazepine receptors; benzodiazepine table,100 mg
same,"Time to Peak (onset of action, in hours)",[1],1 to 3 h
same,Elimination ½-Life,[1]; parent drug,3 to 26 h
Cc1nnc2n1-c1ccc(Cl)cc1C(c1ccccc1Cl)=NC2 [Triazolam],AED (Approximate Equivalent Dose),benzodiazepine receptors; benzodiazepine table,0.25 mg
same,"Time to Peak (onset of action, in hours)",[1],0.5-2^ hours
same,Elimination ½-Life,[1]; parent drug,2 h
CCN(C(C)=O)c1cccc(-c2ccnc3c(C#N)cnn23)c1 [Zaleplon],AED (Approximate Equivalent Dose),benzodiazepine receptors; [2],20 mg
Cc1ccc(-c2nc3ccc(C)cn3c2CC(=O)N(C)C)cc1 [Zolpidem],AED (Approximate Equivalent Dose),benzodiazepine receptors; [2],20 mg
same,Elimination ½-Life,[1]; [2],2.6 h
CN1CCN(C(=O)OC2c3nccnc3C(=O)N2c2ccc(Cl)cn2)CC1 (centres unmarked) [Zopiclone],AED (Approximate Equivalent Dose),benzodiazepine receptors; [2],15 mg
same,Elimination ½-Life,[1]; [2],4 to 6 h
